From PubChem BioAssay AID328 (DTP/NCI, 2004)
Several values for one entry are separate records, joined by “and”; a condition that tells them apart may be missing. Equal values may be shown once. Toxic doses and inconclusive results are not listed.

Tested on: BDF1 mice, P388 leukemia ip, median survival T/C
Assay: NCI In Vivo Anticancer Drug Screen. Data for tumor model P388 Leukemia (intraperitoneal) in B6D2F1 (BDF1) mice
Details: endpoint: median survival time, higher = longer survival
In short: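 Mice carrying the transplantable tumour receive compound or vehicle. Survival is followed in each arm, and the treated measure is divided by the vehicle measure.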

[1] = dose: 50.0 mg/kg/injection, schedule: Q04DX003 (ip), vehicle: saline
[2] = dose: 100.0 mg/kg/injection, schedule: Q04DX003 (ip), vehicle: saline with Tween-80
[3] = dose: 200.0 mg/kg/injection, schedule: Q04DX003 (ip), vehicle: saline with Tween-80
[4] = dose: 400.0 mg/kg/injection, schedule: Q04DX003 (ip), vehicle: saline with Tween-80
[5] = dose: 100.0 mg/kg/injection, schedule: Q01DX009 (ip), vehicle: water
[6] = dose: 100.0 mg/kg/injection, schedule: Q04DX003 (ip), vehicle: water
[7] = dose: 200.0 mg/kg/injection, schedule: Q01DX009 (ip), vehicle: water
[8] = dose: 200.0 mg/kg/injection, schedule: Q04DX003 (ip), vehicle: water
[9] = dose: 400.0 mg/kg/injection, schedule: Q04DX003 (ip), vehicle: water
[10] = dose: 100.0 mg/kg/injection, schedule: Q01DX009 (ip), vehicle: saline with Tween-80
[11] = dose: 200.0 mg/kg/injection, schedule: Q01DX009 (ip), vehicle: saline with Tween-80
[12] = dose: 100.0 mg/kg/injection, schedule: Q01DX009 (ip), vehicle: Klucel (hydroxypropylcellulose) (HPC)
[13] = dose: 100.0 mg/kg/injection, schedule: Q04DX003 (ip), vehicle: Klucel (hydroxypropylcellulose) (HPC)
[14] = dose: 200.0 mg/kg/injection, schedule: Q01DX009 (ip), vehicle: Klucel (hydroxypropylcellulose) (HPC)
[15] = dose: 200.0 mg/kg/injection, schedule: Q04DX003 (ip), vehicle: Klucel (hydroxypropylcellulose) (HPC)
[16] = dose: 400.0 mg/kg/injection, schedule: Q01DX009 (ip), vehicle: Klucel (hydroxypropylcellulose) (HPC)
[17] = dose: 100.0 mg/kg/injection, schedule: Q01DX001 (ip), vehicle: Klucel (hydroxypropylcellulose) (HPC)
[18] = dose: 200.0 mg/kg/injection, schedule: Q01DX001 (ip), vehicle: Klucel (hydroxypropylcellulose) (HPC)
[19] = dose: 400.0 mg/kg/injection, schedule: Q01DX001 (ip), vehicle: Klucel (hydroxypropylcellulose) (HPC)
[20] = dose: 12.5 mg/kg/injection, schedule: Q01DX009 (ip), vehicle: saline with Tween-80
[21] = dose: 25.0 mg/kg/injection, schedule: Q01DX009 (ip), vehicle: saline with Tween-80
[22] = dose: 50.0 mg/kg/injection, schedule: Q01DX009 (ip), vehicle: saline with Tween-80
[23] = dose: 50.0 mg/kg/injection, schedule: Q04DX003 (ip), vehicle: saline with Tween-80

`C[N+](C)(C)CCCC[N+](C)(C)C` was tested, and the T/C (dose: 25.0 mg/kg/injection, schedule: Q01DX009 (ip), vehicle: saline) was 93 % of control, the T/C (dose: 50.0 mg/kg/injection, schedule: Q01DX009 (ip), vehicle: saline) was 91 % of control and the T/C [1] was 103 % of control. For the same molecule, the T/C (dose: 100.0 mg/kg/injection, schedule: Q01DX009 (ip), vehicle: saline) was 87 % of control, the T/C (dose: 100.0 mg/kg/injection, schedule: Q04DX003 (ip), vehicle: saline) was 103 % of control and the T/C (dose: 200.0 mg/kg/injection, schedule: Q01DX009 (ip), vehicle: saline) was 89 % of control and 93 % of control. The T/C (dose: 200.0 mg/kg/injection, schedule: Q04DX003 (ip), vehicle: saline) was 100 % of control and the T/C (dose: 300.0 mg/kg/injection, schedule: Q01DX009 (ip), vehicle: saline) was 93 % of control and 96 % of control.

`CC1(C)OC2(C)CCC1C(O)C2N1CCOCC1` (centres undefined) was tested, and the T/C (dose: 50.0 mg/kg/injection, schedule: Q01DX005 (ip), vehicle: saline with Tween-80) was 106 % of control, the T/C (dose: 100.0 mg/kg/injection, schedule: Q01DX005 (ip), vehicle: saline with Tween-80) was 106 % of control and the T/C (dose: 200.0 mg/kg/injection, schedule: Q01DX005 (ip), vehicle: saline with Tween-80) was 101 % of control.

For `Cc1ccc(C(=O)C(Br)C(Br)c2ccccc2)cc1` (centres undefined), the T/C [2] was 95 % of control, the T/C [3] was 94 % of control and the T/C [4] was 103 % of control.

For `CCN(CC)CCCNc1ncnc2onc(C)c12`, the T/C [2] was 101 % of control, the T/C [3] was 97 % of control and the T/C [4] was 106 % of control.

For `CCOC(=N)CC(=N)OCC`, the T/C [5] was 103 % of control, the T/C [6] was 104 % of control and the T/C [7] was 103 % of control. For the same molecule, the T/C [8] was 100 % of control, the T/C (dose: 400.0 mg/kg/injection, schedule: Q01DX009 (ip), vehicle: water) was 101 % of control and the T/C [9] was 100 % of control.

`CCOC(=O)C(Cc1ccccc1)P(=O)(OCC)OCC` (centres undefined) was tested, and the T/C [10] was 109 % of control and the T/C [11] was 104 % of control.

In the case of `CCCCCCCCCCCCOc1ccc(C)cc1`, the T/C [2] is reported as 109 % of control, the T/C [3] is reported as 100 % of control and the T/C [4] is reported as 100 % of control.

With `N#CCCC1(CCC#N)c2ccccc2-c2ccccc21` the T/C [12] was 92 % of control, the T/C [13] was 96 % of control and the T/C [14] was 92 % of control. The T/C [15] was 112 % of control, the T/C [16] was 92 % of control and the T/C (dose: 400.0 mg/kg/injection, schedule: Q04DX003 (ip), vehicle: Klucel (hydroxypropylcellulose) (HPC)) was 92 % of control.

With `Nc1n[nH]c(=S)n1-c1ccccc1` the T/C [17] was 104 % of control, the T/C [12] was 95 % of control and the T/C [18] was 95 % of control. The T/C [14] was 91 % of control, the T/C [19] was 90 % of control and the T/C [16] was 104 % of control.

With `Nc1ccc(S(=O)(=O)Nc2ccc([N+](=O)[O-])cc2)cc1` the T/C [20] was 87 % of control, the T/C [21] was 96 % of control and 105 % of control and the T/C (dose: 25.0 mg/kg/injection, schedule: Q04DX003 (ip), vehicle: saline with Tween-80) was 102 % of control. The T/C [22] was 89 % of control, the T/C [23] was 99 % of control and the T/C [10] was 87 % of control and 93 % of control. The T/C [2] was 105 % of control, the T/C [3] was 112 % of control and the T/C [4] was 114 % of control.

`Cc1ccc(CC2NC(=O)NC2=O)cc1` (centres undefined) was tested, and the T/C (dose: 6.25 mg/kg/injection, schedule: Q01DX009 (ip), vehicle: saline with Tween-80) was 104 % of control, the T/C [20] was 88 % of control and 99 % of control and the T/C [21] was 90 % of control and 98 % of control. For the same molecule, the T/C [22] was 98 % of control and 120 % of control, the T/C [23] was 122 % of control and the T/C [10] was 87 % of control and 118 % of control. The T/C [2] was 122 % of control, the T/C [11] was 111 % of control and the T/C [3] was 105 % of control. The T/C (dose: 400.0 mg/kg/injection, schedule: Q01DX009 (ip), vehicle: saline with Tween-80) was 96 % of control and the T/C [4] was 105 % of control.

For `O=C(O)C1CCC=CCC1`, the T/C (dose: 50.0 mg/kg/injection, schedule: Q04DX003 (ip), vehicle: other) was 100 % of control, the T/C (dose: 100.0 mg/kg/injection, schedule: Q04DX003 (ip), vehicle: other) was 100 % of control and the T/C (dose: 200.0 mg/kg/injection, schedule: Q04DX003 (ip), vehicle: other) was 109 % of control.

In the case of `CC1CNC(=S)O1` (centres undefined), the T/C [23] is reported as 90 % of control, the T/C [2] is reported as 120 % of control and the T/C [3] is reported as 90 % of control. The T/C [4] was 115 % of control.

In the case of `[O-]c1on[n+](C2CCCCC2)c1-c1ccccc1`, the T/C (dose: 50.0 mg/kg/injection, schedule: Q04DX003 (ip), vehicle: Klucel (hydroxypropylcellulose) (HPC)) is reported as 105 % of control, the T/C [17] is reported as 109 % of control and the T/C [10] is reported as 92 % of control. For the same molecule, the T/C [13] was 100 % of control, the T/C [18] was 104 % of control and the T/C [11] was 92 % of control. For the same molecule, the T/C [15] was 100 % of control and the T/C [19] was 100 % of control.

In the case of `Nc1ccccc1N`, the T/C [21] is reported as 92 % of control and 100 % of control, the T/C [22] is reported as 100 % of control and the T/C [11] is reported as 97 % of control.

With `Clc1ccc(CBr)c2ccccc12` the T/C [20] was 108 % of control, the T/C [21] was 106 % of control and the T/C [22] was 110 % of control.

`COC(OC)c1[nH]c(=S)[nH]c(=O)c1Cc1c(Cl)cccc1Cl` was tested, and the T/C [2] was 104 % of control, the T/C [3] was 104 % of control and the T/C [4] was 100 % of control.

For `C[N+](C)(C)C12CCCCCC1SC2` (centres undefined), the T/C (dose: 25.0 mg/kg/injection, schedule: Q04DX003 (ip), vehicle: saline) was 106 % of control and the T/C [1] was 101 % of control.

In the case of `CN(N=O)c1ccc(/C=C/c2ccnc3ccccc23)cc1`, the T/C (dose: 100.0 mg/kg/injection, schedule: Q01DX009 (ip), vehicle: saline sonified) is reported as 115 % of control.

In the case of `O=C(Nc1ccc(C(=O)O)cc1)Oc1ccc(N(CCCl)CCCl)cc1`, the T/C (dose: 12.0 mg/kg/injection, schedule: Q04DX003 (ip), vehicle: saline) is reported as 163 % of control, the T/C (dose: 19.0 mg/kg/injection, schedule: Q04DX003 (ip), vehicle: saline) is reported as 154 % of control and the T/C (dose: 29.0 mg/kg/injection, schedule: Q04DX003 (ip), vehicle: saline with Tween-80) is reported as 200 % of control. The T/C (dose: 45.0 mg/kg/injection, schedule: Q04DX003 (ip), vehicle: saline with Tween-80) was 235 % of control, the T/C (dose: 66.0 mg/kg/injection, schedule: Q04DX003 (ip), vehicle: saline with Tween-80) was 163 % of control and the T/C [2] was 245 % of control. The T/C (dose: 150.0 mg/kg/injection, schedule: Q04DX003 (ip), vehicle: saline with Tween-80) was 190 % of control.

For `O=c1oc2ccccc2c2c1C(c1ccccc1)C=C(c1ccccc1)O2` (centres undefined), the T/C [23] was 96 % of control, the T/C [2] was 91 % of control and the T/C [3] was 91 % of control. For the same molecule, the T/C [4] was 95 % of control.

`CC(C)(N)CCC(C)(C)NCCCN` was tested, and the T/C (dose: 50.0 mg/kg/injection, schedule: Q01DX009 (ip), vehicle: water) was 92 % of control, the T/C [5] was 103 % of control and the T/C [6] was 100 % of control. For the same molecule, the T/C [7] was 106 % of control, the T/C [8] was 103 % of control and the T/C [9] was 92 % of control.
